For one test, the system named is Laodelphax striatella. Put plainly: Insecticidal test on Laodelphax striatella (rice seedling dip). The test is classed as in vivo. The settings on record: Laodelphax striatellus, 192 h, read-out: insecticidal effect (corrected mortality rate). The text has this: Insecticidal Test on Laodelphax striatella
The oxime group-containing condensed heterocyclic compounds represented by the general formula (1) of the present invention or salts thereof were separately dispersed in water and diluted to 500 ppm, and rice plant seedlings (variety: Nihonbare) were dipped in the agrochemical dispersions for 30 seconds. After air-dried, each seedling was put into a separate glass test tube and inoculated with ten 3rd-instar larvae of Laodelphax striatella, and then the glass test tubes were capped with cotton plugs. At 8 days after the inoculation, the numbers of surviving larvae and dead larvae were counted, the corrected mortality rate was calculated according to the formula shown below, and the insecticidal effect was evaluated according to the criteria of Test Example 1. Corrected mortality rate (%)=100×(Survival rate in a non-treatment plot−Survival rate in a treatment plot)/Survival rate in a non-treatment plot [Math. 2]

A further test relates to Plutella xylostella. Put plainly: Insecticidal test on Plutella xylostella (dip of Chinese cabbage seedlings with laid eggs). It is filed as in vivo. Particulars: 144 h. The text has this:
Insecticidal Test on Plutella xylostella
Adults of Plutella xylostella were released onto Chinese cabbage seedlings and allowed to lay eggs thereon. At 2 days after the release of the adults, the Chinese cabbage seedlings with laid eggs were dipped for about 30 seconds in agrochemical dispersions diluted to 500 ppm, each of which contained a different kind of oxime group-containing condensed heterocyclic compound represented by the general formula (1) of the present invention as an active ingredient. After air-dried, the seedlings were kept in a thermostatic chamber at 25° C. At 6 days after the dip treatment, the number of hatched larvae per plot was counted, the mortality rate was calculated according to the formula shown below, and the insecticidal effect was evaluated according to the criteria of Test Example 1. This test was conducted in triplicate using 10 adults of Plutella xylostella per plot. Corrected mortality rate (%)=100×(Number of hatched larvae in a non-treatment plot−Number of hatched larvae in a treatment plot)/Number of hatched larvae in a non-treatment plot [Math. 3]

The mark [1] stands for this setting: 500 ppm, rice seedlings (Nihonbare) dipped 30 seconds, ten 3rd-instar larvae, 8 days after inoculation, criteria of Test Example 1.
The mark [2] stands for this setting: 500 ppm, Chinese cabbage seedlings with laid eggs dipped about 30 seconds, 25° C., 6 days after dip treatment, criteria of Test Example 1, read-out: insecticidal effect (corrected mortality rate, hatched larvae).

Like-named read-outs stand apart in the source and are kept apart here.

Consider `CCS(=O)(=O)c1cc(C=NO)cnc1-c1nc2cc(C(F)(F)F)cnc2n1C` [Compound 2-3], for which the mortality at 500 ppm in the test on Laodelphax striatella (setting [1]) and with Plutella xylostella (setting [2]) was 100% in each case.
For the compound `CCS(=O)(=O)c1cc(C=NOCC(F)(F)F)cnc1-c1nc2cc(C(F)(F)F)cnc2n1C` [Compound 2-33], the mortality at 500 ppm in the test with Laodelphax striatella (setting [1]) and in the test with Plutella xylostella (setting [2]) was 100% each time.
As for `CCS(=O)(=O)c1ccc(C=NO)nc1-c1nc2cc(C(F)(F)F)nnc2n1C` [Compound 3-1], the mortality at 500 ppm with Laodelphax striatella (in Oryza sativa) was 100%; in the test on Plutella xylostella (in Brassica rapa, read-out: insecticidal effect (corrected mortality rate, hatched larvae)) it was 100%.
Regarding `CCS(=O)(=O)c1ccc(C=NOCC(F)(F)F)nc1-c1nc2cc(C(F)(F)F)nnc2n1C` [Compound 3-2], the mortality at 500 ppm with Laodelphax striatella (setting [1]) and in the test on Plutella xylostella (setting [2]) was 100% throughout.
For the compound `CCS(=O)(=O)c1cc(/C=N/O)cnc1-c1nc2cc(SC(F)(F)F)ccc2o1` [Compound 4-11], the mortality at 500 ppm in the test with Laodelphax striatella (setting [1]) and in the test on Plutella xylostella (setting [2]) was 100% each time.
Turning to `CCS(=O)(=O)c1cc(/C=N/OCC(F)(F)F)cnc1-c1nc2cc(SC(F)(F)F)ccc2o1` [Compound 4-12], the mortality at 500 ppm in the test with Laodelphax striatella (setting [1]) and in the test on Plutella xylostella (setting [2]) was 100% throughout.

As usually defined, the mortality is the percentage killed.

For the origin of these results see patent publication US11787809B2 (NIHON NOHYAKU CO., LTD., priority 2015, dated 2023).
